The numbers were not newly measured in patent US20090093542A1, “Copper antagonist compositions” (priority 2007, published 2009), which cites them from elsewhere.

For series [1] the following is noted: long-term use in Wilson's disease.
For series [2] the following is noted: solution of the free base itself.

On to `CC(=O)[O-].CC(=O)[O-].[Zn+2]` [Zinc acetate], for which the “long-term or major side effects in patients” value in series [1] is recorded as “has not shown any long-term or major side effects”.
As to `CC(C)(S)[C@@H](N)C(=O)O` [Penicillamine, 3-mercapto-D-valine], under “alcohol”, the solubility in alcohol result is “slightly soluble”. The “solubility in ether, acetone, benzene, and carbon tetrachloride” value (ether, acetone, benzene, carbon tetrachloride) is recorded as “insoluble”. Further, for the setting “water”, the solubility in water entry is “freely soluble”.
Turning to `NCCNCCNCCN` [trientine, triethylenetetramine], in series [2], the “pH of a solution” value is reported as 14.
